# Target: GCN2 (Homo sapiens, UniProt Q9P2K8)
# Assay: GCN2 enzymatic endpoint assay: phosphorylation of GFP-eIF2α measured by TR-FRET (Lanthascreen)
# Format: biochemical
# Settings: tested as described in Example 77; compound and/or hydrochloride, dihydrochloride or trifluoroacetic acid salt; read-out: IC 50 Activity
# Method in brief: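 Read-out is the TR-FRET ratio of acceptor signal at 520 nm to terbium donor at 495 nm, rising with antibody binding to phosphorylated GFP-eIF2α. Endpoint format: 2 μM ATP, 80 nM substrate, 90 minutes at room temperature, EDTA stop.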
# Sequence of GCN2 (Q9P2K8 whole entry): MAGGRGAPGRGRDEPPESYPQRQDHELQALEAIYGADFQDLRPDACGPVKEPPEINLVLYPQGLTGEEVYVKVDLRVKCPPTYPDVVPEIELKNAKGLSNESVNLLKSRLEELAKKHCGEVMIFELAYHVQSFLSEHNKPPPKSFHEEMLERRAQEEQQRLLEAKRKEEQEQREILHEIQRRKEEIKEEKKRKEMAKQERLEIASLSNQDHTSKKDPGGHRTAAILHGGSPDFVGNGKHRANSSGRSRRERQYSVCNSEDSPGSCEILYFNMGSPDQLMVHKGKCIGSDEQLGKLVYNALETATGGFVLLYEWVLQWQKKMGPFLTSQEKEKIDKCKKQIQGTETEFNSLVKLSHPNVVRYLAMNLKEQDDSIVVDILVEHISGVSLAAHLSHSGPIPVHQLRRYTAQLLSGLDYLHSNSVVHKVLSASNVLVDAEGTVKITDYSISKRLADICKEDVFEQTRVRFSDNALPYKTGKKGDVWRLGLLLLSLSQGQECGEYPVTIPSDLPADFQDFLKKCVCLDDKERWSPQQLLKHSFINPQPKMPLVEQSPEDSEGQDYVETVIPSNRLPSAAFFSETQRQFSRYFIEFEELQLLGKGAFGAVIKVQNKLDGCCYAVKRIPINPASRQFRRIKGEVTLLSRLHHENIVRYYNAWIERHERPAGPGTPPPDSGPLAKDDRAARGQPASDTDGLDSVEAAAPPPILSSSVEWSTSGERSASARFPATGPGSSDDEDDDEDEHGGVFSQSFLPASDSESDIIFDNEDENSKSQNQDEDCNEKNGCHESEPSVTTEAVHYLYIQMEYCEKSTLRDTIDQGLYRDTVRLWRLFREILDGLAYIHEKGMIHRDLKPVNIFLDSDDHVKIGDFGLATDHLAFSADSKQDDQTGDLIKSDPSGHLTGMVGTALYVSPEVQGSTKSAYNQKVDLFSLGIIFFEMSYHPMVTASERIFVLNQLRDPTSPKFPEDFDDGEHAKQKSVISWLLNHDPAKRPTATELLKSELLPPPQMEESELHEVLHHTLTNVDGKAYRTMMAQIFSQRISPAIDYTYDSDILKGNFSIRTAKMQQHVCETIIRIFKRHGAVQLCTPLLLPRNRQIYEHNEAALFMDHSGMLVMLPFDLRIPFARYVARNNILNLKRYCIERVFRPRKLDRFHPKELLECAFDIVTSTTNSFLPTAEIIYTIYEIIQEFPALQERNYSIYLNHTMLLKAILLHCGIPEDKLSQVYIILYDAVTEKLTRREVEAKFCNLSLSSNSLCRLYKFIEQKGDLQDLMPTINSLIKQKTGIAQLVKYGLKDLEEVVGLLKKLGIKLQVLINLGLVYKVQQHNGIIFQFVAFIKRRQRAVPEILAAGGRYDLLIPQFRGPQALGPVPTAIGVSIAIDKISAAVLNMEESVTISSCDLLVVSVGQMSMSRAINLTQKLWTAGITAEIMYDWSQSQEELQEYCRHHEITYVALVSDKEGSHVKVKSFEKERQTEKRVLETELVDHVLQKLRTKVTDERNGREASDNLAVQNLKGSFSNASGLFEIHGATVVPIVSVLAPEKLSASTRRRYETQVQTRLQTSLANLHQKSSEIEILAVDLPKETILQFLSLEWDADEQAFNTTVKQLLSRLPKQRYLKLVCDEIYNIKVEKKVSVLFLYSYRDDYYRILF
row,SMILES,IC50 [µM]
1,"CS(=O)(=O)CCNC(=O)C12CCC(Nc3ncc4c(Br)nn(-c5ccc6ncccc6c5)c4n3)(C1)C2 [4-((3-bromo-1-(quinolin-6-yl)-1H-pyrazolo [3,4-d]pyrimidin-6-yl)amino)-N-(2-(methyl-sulfonyl)ethyl)bicyclo[2.1.1]hexane-1-carboxamide]",0.2 to 0.5
2,"O=C(O)[C@@H]1CCC[C@@H](Nc2ncc3c(Br)nn(-c4ccc5ncccc5c4)c3n2)C1 [(1R,3R)-3-((3-bromo-1-(quinolin-6-yl)-1H-pyrazolo[3,4-d]pyrimidin-6-yl)amino) cyclohexane-1-carboxylic acid]",0.5 to 1
3,"CNC(=O)[C@]1(C)CC[C@@H](Nc2ncc3c(Br)nn(-c4ccc5c(c4)CN(S(C)(=O)=O)CC5)c3n2)C1 [(1R,3R)-3-[[3-bromo-1-(2-methylsulfonyl-3,4-dihydro-1H-isoquinolin-7-yl)pyrazolo [3,4-d]pyrimidin-6-yl]amino]-N,1-dimethyl-cyclopentanecarboxamide]",0.025 to 0.2
4,"CNC(=O)C1(C)CC[C@@H](Nc2ncc3c(Br)nn(-c4cc(CO)cc(OC)c4)c3n2)C1 (stereo partly drawn) [(3R)-3-[[3-bromo-1-[3-(hydroxymethyl)-5-methoxy-phenyl]pyrazolo[3,4-d]pyrimidin-6-yl]amino]-N,1-dimethyl-cyclopentanecarboxamide]",0.025 to 0.2
5,CCc1cc(-n2nc(Br)c3cnc(N[C@@H]4CC[C@@](C)(C(=O)NC)C4)nc32)ccc1-c1nnc(C)s1,0.025 to 0.2

# Second part, the compound after the results:
row,IC50 [µM],SMILES
1,0.025 to 0.2,"CC1(C(=O)N2CCN3CCOC[C@@H]3C2)CC[C@@H](Nc2ncc3c(Br)nn(-c4cc(F)c5ncccc5c4)c3n2)C1 (stereo partly drawn) [[(9aS)-3,4,6,7,9,9a-hexahydro-1H-pyrazino [2,1-c][1,4]oxazin-8-yl]-[(3R)-3-[[3-bromo-1-(8-fluoro-6-quinolyl)pyrazolo[3,4-d]pyrimidin-6-yl]amino]-1-methyl-cyclopentyl]methanone]"
2,0.025 to 0.2,"CNC(=O)c1cc(Cl)cc(-n2nc(Br)c3cnc(N[C@@H]4CC[C@@](C)(C(=O)NC)C4)nc32)c1 [3-[3-bromo-6-[[(1R,3R)-3-methyl-3-(methylcarbamoyl)cyclopentyl]amino]pyrazolo[3,4-d]pyrimidin-1-yl]-5-chloro-N-methyl-benzamide]"
3,0.025 to 0.2,"CN1CCN(C(=O)[C@@H]2CC[C@@H](Nc3ncc4c(Br)nn(-c5cc(C(F)F)c6ncccc6c5)c4n3)C2)CC1=O [4-((1R,3R)-3-((3-bromo-1-(8-(difluoromethyl)quinolin-6-yl)-1H-pyrazolo[3,4-d]pyrimidin-6-yl)amino)cyclopentane-1-carbonyl)-1-methyl-piperazin-2-one]"
4,0.025 to 0.2,"CNC(=O)[C@]1(C)CC[C@@H](Nc2ncc3c(Br)nn(-c4cc(F)c5nc(C)cc(Cl)c5c4)c3n2)C1 [(1R,3R)-3-[[3-bromo-1-(4-chloro-8-fluoro-2-methyl-6-quinolyl)pyrazolo[3,4-d]pyrimidin-6-yl]amino]-N,1-dimethyl-cyclopentanecarboxamide]"
5,0.025 to 0.2,"C=CC(=O)NCCc1cc(-n2nc(Br)c3cnc(N[C@@H]4CC[C@@](C)(C(=O)NC)C4)nc32)cc2cccnc12 [(1R,3R)-3-[[3-bromo-1-[8-[2-(prop-2-enoylamino)ethyl]-6-quinolyl]pyrazolo [3,4-d]pyrimidin-6-yl]amino]-N,1-dimethyl-cyclopentanecarboxamide]"
6,0.025 to 0.2,"O=C([C@@H]1CC[C@@H](Nc2ncc3c(Br)nn(-c4cc(F)c5ncccc5c4)c3n2)C1)N1CCS(=O)(=O)CC1 [((1R,3R)-3-((3-bromo-1-(8-fluoroquinolin-6-yl)-1H-pyrazolo[3,4-d]pyrimidin-6-yl)amino)cyclopentyl)(1,1-dioxidothio-morpholino)methanone]"
7,< 0.025,"CC1(C(=O)N2CNC(=O)C2)CC[C@@H](Nc2ncc3c(Br)nn(-c4cc(F)c5ncccc5c4)c3n2)C1 (stereo partly drawn) [1-[(3R)-3-[[3-bromo-1-(8-fluoro-6-quinolyl)pyrazolo[3,4-d]pyrimidin-6-yl]amino]-1-methyl-cyclopentanecarbonyl]imidazolidin-4-one]"

# From patent publication US11046699B2, “Pyrazolo-pyrimidin-amino-cycloalkyl compounds and their therapeutic uses” (RAPT THERAPEUTICS, INC., priority 2018, dated 2021)
